Test results reported in ChEMBL document CHEMBL1201862, “PubChem BioAssay data set” (2004).
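Where inhibition never reached the appropriate level, the endpoint shown equals the highest concentration tested. Otherwise, values were interpolated linearly from a five-concentration, 48-hour dose response in 96-well plates. At the GI50, growth is halved.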 Activity calls are given as the source filed them. No stated cut-off is given here; in the data, active = GI50 up to about 1.1 µM and inactive = higher.

Legend:
Assay in all cases: NCI anticancer screen, dose series, 48 h
OVCAR-8 = system: OVCAR-8
UACC-62 = system: UACC-62
NCI-H460 = system: NCI-H460
SF-268 = system: SF-268
SNB-19 = system: SNB-19
SNB-75 = system: SNB-75
HCC 2998 = system: HCC 2998
SK-MEL-5 = system: SK-MEL-5
UACC-257 = system: UACC-257
LOX IMVI = system: LOX IMVI
NCI-H226 = system: NCI-H226
OVCAR-5 = system: OVCAR-5
TK-10 = system: TK-10
SF-539 = system: SF-539
SK-OV-3 = system: SK-OV-3
786-0 = system: 786-0
RPMI-8226 = system: RPMI-8226

Measured: GI50

CC1(C)OC2OC(/C=C/[N+](=O)[O-])C3OC(C)(C)OC3C2O1 (configuration not stated)
inactive: OVCAR-8 8.47 µM | UACC-62 15.1 µM | NCI-H460 15.4 µM | SF-268 19.8 µM | SNB-19 18.5 µM | SNB-75 20.2 µM | HCC 2998 16.8 µM | SK-MEL-5 16.6 µM | UACC-257 7.52 µM | LOX IMVI 7.5 µM | NCI-H226 20.5 µM | OVCAR-5 23.2 µM | TK-10 5.26 µM | SF-539 13.6 µM | SK-OV-3 20.6 µM | 786-0 13.8 µM

CN(C)C(=O)CC(C(=O)O)c1c[nH]c2ccccc12 (configuration not stated)
inactive: OVCAR-8 > 100 µM | UACC-62 > 100 µM | NCI-H460 > 100 µM | SNB-19 > 100 µM | SNB-75 > 100 µM | HCC 2998 > 100 µM | SK-MEL-5 > 100 µM | RPMI-8226 > 100 µM | UACC-257 > 100 µM | LOX IMVI > 100 µM | TK-10 > 100 µM | SF-539 > 100 µM | 786-0 > 100 µM

COc1cccc(N2C(=O)c3c(c4[nH]c5ccccc5c4c4ccc(C(C)(C)C)cc34)C2=O)c1
inactive: OVCAR-8 > 100 µM | UACC-62 > 100 µM | NCI-H460 > 100 µM | SF-268 > 100 µM | SNB-19 > 100 µM | SNB-75 > 100 µM | HCC 2998 > 100 µM | SK-MEL-5 > 100 µM | UACC-257 > 100 µM | LOX IMVI > 100 µM | NCI-H226 > 100 µM | OVCAR-5 > 100 µM | TK-10 > 100 µM | SF-539 > 100 µM | SK-OV-3 > 100 µM | 786-0 > 100 µM

CCN(CC)C(=O)CCn1cc(F)c(=O)[nH]c1=O
inactive: OVCAR-8 > 100 µM | UACC-62 > 100 µM | NCI-H460 > 100 µM | SF-268 > 100 µM | SNB-19 > 100 µM | SNB-75 4.68 µM | SK-MEL-5 > 100 µM | RPMI-8226 > 100 µM | LOX IMVI > 100 µM | NCI-H226 > 100 µM | OVCAR-5 > 100 µM | TK-10 > 100 µM | SF-539 > 100 µM | 786-0 > 100 µM

OCC(O)C(OC1OC(CO)C(O)C(O)C1O)c1nn(-c2ccccc2)c2nc3cc(Cl)c(Cl)cc3cc12 (configuration not stated)
inactive: OVCAR-8 > 100 µM | UACC-62 > 100 µM | NCI-H460 > 100 µM | SF-268 > 100 µM | SNB-19 > 100 µM | SNB-75 > 100 µM | HCC 2998 > 100 µM | RPMI-8226 > 100 µM | UACC-257 > 100 µM | LOX IMVI > 100 µM | OVCAR-5 > 100 µM | TK-10 > 100 µM | SF-539 > 100 µM | SK-OV-3 > 100 µM | 786-0 > 100 µM

COc1ccc(Nc2nc3c(N)cc(C(F)(F)F)cc3nc2-c2ccccc2)cc1OC
inactive: OVCAR-8 15.1 µM | UACC-62 19.7 µM | NCI-H460 27.3 µM | SF-268 16.5 µM | SNB-19 19.8 µM | SNB-75 4.85 µM | HCC 2998 24.1 µM | SK-MEL-5 20.4 µM | UACC-257 27.2 µM | LOX IMVI 40.6 µM | NCI-H226 24.2 µM | OVCAR-5 64.7 µM | TK-10 21.3 µM | SF-539 18.2 µM | SK-OV-3 12.7 µM | 786-0 12.4 µM

O=c1c2cc(Br)ccc2nc(-c2ccccc2)n1NCC1(O)OCC(O)C(O)C1O (configuration not stated)
inactive: OVCAR-8 > 100 µM | UACC-62 > 100 µM | NCI-H460 > 100 µM | SF-268 > 100 µM | SNB-19 > 100 µM | SNB-75 > 100 µM | SK-MEL-5 > 100 µM | RPMI-8226 > 100 µM | UACC-257 > 100 µM | LOX IMVI > 100 µM | NCI-H226 > 100 µM | OVCAR-5 > 100 µM | SF-539 > 100 µM | SK-OV-3 > 100 µM | 786-0 > 100 µM

Cc1cc([N+](=O)[O-])ccc1Sc1c2ccccc2nc2ccccc12
inactive: OVCAR-8 29.1 µM | UACC-62 25.1 µM | NCI-H460 32 µM | SF-268 41 µM | SNB-19 45.5 µM | SNB-75 39.6 µM | HCC 2998 25.4 µM | SK-MEL-5 43.1 µM | UACC-257 29.4 µM | LOX IMVI 20 µM | NCI-H226 > 100 µM | OVCAR-5 > 100 µM | TK-10 57 µM | SF-539 28.4 µM | SK-OV-3 31.3 µM | 786-0 23.6 µM

N#CC(C(=N/NC(N)=S)/C(=N/NC(N)=S)C(C#N)c1ccc(Cl)cc1)c1ccc(Cl)cc1 (configuration not stated)
inactive: OVCAR-8 53.8 µM | UACC-62 59.6 µM | NCI-H460 > 100 µM | SF-268 > 100 µM | SNB-19 > 100 µM | SNB-75 31.3 µM | HCC 2998 > 100 µM | SK-MEL-5 78.2 µM | UACC-257 > 100 µM | LOX IMVI > 100 µM | NCI-H226 > 100 µM | OVCAR-5 > 100 µM | TK-10 > 100 µM | SF-539 > 100 µM | SK-OV-3 > 100 µM | 786-0 > 100 µM

CC1=N/C(=C\c2ccc(/C=C3/N=C(C)OC3=O)cc2)C(=O)O1
inactive: OVCAR-8 > 100 µM | UACC-62 > 100 µM | SF-268 > 100 µM | SNB-19 > 100 µM | SNB-75 > 100 µM | HCC 2998 > 100 µM | SK-MEL-5 > 100 µM | RPMI-8226 > 100 µM | UACC-257 > 100 µM | LOX IMVI > 100 µM | OVCAR-5 > 10 µM | TK-10 > 100 µM | SF-539 > 100 µM | SK-OV-3 > 100 µM | 786-0 > 100 µM

[N-]=[N+]=Nc1cc(=O)n(-c2ccccc2)c2ccccc12
inactive: OVCAR-8 > 100 µM | UACC-62 > 100 µM | NCI-H460 > 100 µM | SF-268 > 100 µM | SNB-75 70.8 µM | SK-MEL-5 > 100 µM | RPMI-8226 > 100 µM | UACC-257 > 100 µM | LOX IMVI > 100 µM | NCI-H226 > 100 µM | OVCAR-5 > 100 µM | TK-10 > 100 µM | SF-539 > 100 µM | SK-OV-3 > 100 µM | 786-0 > 100 µM

N#Cc1ccccc1NC(=O)/C(=N\N)C(C(=O)c1ccncc1)C1OC(=O)c2ccccc21 (configuration not stated)
inactive: OVCAR-8 > 100 µM | UACC-62 > 100 µM | NCI-H460 > 100 µM | SF-268 > 100 µM | SNB-19 > 100 µM | HCC 2998 > 100 µM | SK-MEL-5 > 100 µM | RPMI-8226 > 100 µM | UACC-257 > 100 µM | LOX IMVI > 100 µM | NCI-H226 > 100 µM | OVCAR-5 > 100 µM | TK-10 > 100 µM | SF-539 > 100 µM | SK-OV-3 > 100 µM | 786-0 > 100 µM

COc1ccc(/C(=C\c2cc(OC)c(OC)c(OC)c2)C(=O)O)cc1
inactive: OVCAR-8 33.5 µM | UACC-62 37 µM | NCI-H460 35.6 µM | SF-268 51.6 µM | SNB-19 54.2 µM | SNB-75 25.6 µM | SK-MEL-5 16 µM | RPMI-8226 27.4 µM | UACC-257 61 µM | LOX IMVI 27.5 µM | NCI-H226 28.1 µM | TK-10 87.9 µM | SF-539 14.2 µM | 786-0 38 µM
